Laboratory results from patent US12077503B2, “Substituted cyclic amides and their use as herbicides” (FMC CORPORATION, priority 2015, dated 2024).

Assays:
Format in all cases: in vivo
rice (Oryza sativa) = experiment: Test C flooded paddy test; conditions: Flood, 0 is no effect, 100 is complete control
Summary of the method: (§1)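 Compound was added directly to paddy water held 3 cm above the soil, with plants at the 2-leaf stage. Injury was scored visually versus untreated controls after 13–15 d greenhouse growth, using a 0–100 scale where 100 means complete control.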

[1] = tested on: sedge, umbrella (small-flower umbrella sedge, Cyperus difformis); experiment: Test C flooded paddy test; conditions: Flood, 0 is no effect, 100 is complete control
Summary of the method: as §1

[2] = tested on: ducksalad (Heteranthera limosa); experiment: Test C flooded paddy test; conditions: Flood, 0 is no effect, 100 is complete control
Summary of the method: as §1

[3] = tested on: barnyardgrass (Echinochloa crus-galli); experiment: Test C flooded paddy test; conditions: Flood, 0 is no effect, 100 is complete control
Summary of the method: as §1

soybean (Glycine max) = experiment: Test C postemergence; conditions: scale 0 to 100, 0 no effect, 100 complete control
Summary of the method: (§2)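 Assessment: visual, 13–15 d after treatment, 0 (no effect) to 100 (complete control) relative to controls. Treatment: preemergence to seeds in loam-sand soil, or postemergence to 1- to 4-leaf plants in peat-based medium. Formulation: non-phytotoxic solvent mixture with surfactant.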

[4] = tested on: foxtail, giant (giant foxtail, Setaria faberii); experiment: Test C postemergence; conditions: scale 0 to 100, 0 no effect, 100 complete control
Summary of the method: as §2

[5] = tested on: morningglory (Ipomoea coccinea); experiment: Test C postemergence; conditions: scale 0 to 100, 0 no effect, 100 complete control
Summary of the method: as §2

corn (Zea mays) = experiment: Test C postemergence; conditions: scale 0 to 100, 0 no effect, 100 complete control
Summary of the method: as §2

[6] = tested on: ryegrass, Italian (Italian ryegrass, Lolium multiflorum); experiment: Test C postemergence; conditions: scale 0 to 100, 0 no effect, 100 complete control
Summary of the method: as §2

[7] = tested on: blackgrass (Alopecurus myosuroides); experiment: Test C postemergence; conditions: scale 0 to 100, 0 no effect, 100 complete control
Summary of the method: as §2

[8] = tested on: waterhemp (common waterhemp, Amaranthus rudis); experiment: Test C postemergence; conditions: scale 0 to 100, 0 no effect, 100 complete control
Summary of the method: as §2

[9] = tested on: chickweed (common chickweed, Stellaria media); experiment: Test C postemergence; conditions: scale 0 to 100, 0 no effect, 100 complete control
Summary of the method: as §2

[10] = tested on: nutsedge, yellow (yellow nutsedge, Cyperus esculentus); experiment: Test C postemergence; conditions: scale 0 to 100, 0 no effect, 100 complete control
Summary of the method: as §2

CN1C[C@H](c2ccc(F)c(F)c2)[C@@H](C(=O)Nc2ccccc2F)C1=O [Compound 596, (3S,4S)-4-(3,4-difluorophenyl)-N-(2-fluorophenyl)-1-methyl-2-oxo-3-pyrrolidinecarboxamide]
60: Plant response rating (scale of 0 to 100), Ducksalad ([2]; 62 g ai/ha) | Plant response rating (scale of 0 to 100), Barnyardgrass ([3]; 62 g ai/ha)
30: Plant response rating (scale of 0 to 100), Ducksalad ([2]; 31 g ai/ha) | Plant response rating, Waterhemp ([8]; 250 g ai/ha)
10: Plant response rating (scale of 0 to 100), Rice (rice (Oryza sativa); 125 g ai/ha) | Plant response rating (scale of 0 to 100), Rice (rice (Oryza sativa); 250 g ai/ha) | Plant response rating, Soybean (soybean (Glycine max); 125 g ai/ha) | Plant response rating, Foxtail, Giant ([4]; 31 g ai/ha) | Plant response rating, Morningglory ([5]; 62 g ai/ha) | Plant response rating, Corn (corn (Zea mays); 250 g ai/ha) | Plant response rating, Blackgrass ([7]; 250 g ai/ha) | Plant response rating, Nutsedge, Yellow ([10]; 125 g ai/ha) | Plant response rating, Nutsedge, Yellow ([10]; 250 g ai/ha)
100: Plant response rating (scale of 0 to 100), Ducksalad ([2]; 250 g ai/ha)
75: Plant response rating (scale of 0 to 100), Barnyardgrass ([3]; 125 g ai/ha)
0: Plant response rating (scale of 0 to 100), Rice (rice (Oryza sativa); 31 g ai/ha) | Plant response rating (scale of 0 to 100), Rice (rice (Oryza sativa); 62 g ai/ha) | Plant response rating (scale of 0 to 100), Sedge, Umbrella ([1]; 31 g ai/ha) | Plant response rating (scale of 0 to 100), Sedge, Umbrella ([1]; 62 g ai/ha) | Plant response rating (scale of 0 to 100), Sedge, Umbrella ([1]; 125 g ai/ha) | Plant response rating (scale of 0 to 100), Sedge, Umbrella ([1]; 250 g ai/ha) | Plant response rating (scale of 0 to 100), Barnyardgrass ([3]; 31 g ai/ha) | Plant response rating, Soybean (soybean (Glycine max); 31 g ai/ha) | Plant response rating, Soybean (soybean (Glycine max); 62 g ai/ha) | Plant response rating, Soybean (soybean (Glycine max); 250 g ai/ha) | Plant response rating, Morningglory ([5]; 31 g ai/ha) | Plant response rating, Corn (corn (Zea mays); 31 g ai/ha) | Plant response rating, Corn (corn (Zea mays); 62 g ai/ha) | Plant response rating, Corn (corn (Zea mays); 125 g ai/ha) | Plant response rating, Ryegrass, Italian ([6]; 31 g ai/ha) | Plant response rating, Ryegrass, Italian ([6]; 62 g ai/ha) | Plant response rating, Ryegrass, Italian ([6]; 125 g ai/ha) | Plant response rating, Ryegrass, Italian ([6]; 250 g ai/ha) | Plant response rating, Blackgrass ([7]; 31 g ai/ha) | Plant response rating, Blackgrass ([7]; 62 g ai/ha) | Plant response rating, Blackgrass ([7]; 125 g ai/ha) | Plant response rating, Waterhemp ([8]; 31 g ai/ha) | Plant response rating, Waterhemp ([8]; 62 g ai/ha) | Plant response rating, Nutsedge, Yellow ([10]; 31 g ai/ha) | Plant response rating, Nutsedge, Yellow ([10]; 62 g ai/ha)
25: Plant response rating, Morningglory ([5]; 125 g ai/ha) | Plant response rating, Chickweed ([9]; 125 g ai/ha)
50: Plant response rating, Foxtail, Giant ([4]; 125 g ai/ha) | Plant response rating, Morningglory ([5]; 250 g ai/ha)
85: Plant response rating (scale of 0 to 100), Barnyardgrass ([3]; 250 g ai/ha)
80: Plant response rating, Foxtail, Giant ([4]; 250 g ai/ha) | Plant response rating, Chickweed ([9]; 250 g ai/ha)
20: Plant response rating, Foxtail, Giant ([4]; 62 g ai/ha) | Plant response rating, Waterhemp ([8]; 125 g ai/ha) | Plant response rating, Chickweed ([9]; 31 g ai/ha) | Plant response rating, Chickweed ([9]; 62 g ai/ha)
90: Plant response rating (scale of 0 to 100), Ducksalad ([2]; 125 g ai/ha)
